# Test results taken from patent US8815881B2 (Hoffmann-La Roche Inc., priority 2010, dated 2014).
# Molecular target: endogenous cellular BACE2 in the Ins1e rat cell line (Rattus norvegicus (Rat), UniProt Q6IE75)
# Assay: Assay for BACE inhibition by measuring cellular TMEM27 cleavage (ELISA of shed hTMEM27 from INS-TMEM27 cells)
# Format: cell-based
# Settings: assay a): cellular TMEM27 cleavage, INS-TMEM27 cells (superscript a)
# Text: a) Assay for BACE Inhibition by Measuring Cellular TMEM27 Cleavage:
# The assay uses the principle of inhibition of human TMEM27 cleavage by endogenous cellular BACE2 in the Ins1e rat cell line and shedding from the cell surface into the culture medium, followed by detection in an ELISA assay. Inhibition of BACE2 prevents the cleavage and shedding in a dose-dependent manner.
# The stable cell line “INS-TMEM27” represents an INS1e-derived cell line with inducible expression (using the TetOn system) of full-length hTMEM27 in a doxycycline-dependent manner. The cells are cultured throughout the experiment in RPMI1640+Glutamax (Invitrogen) Penicillin/Streptomycin, 10% Fetal bovine serum, […], […], 100 micrograms/ml G418 and 100 microgram/ml hygromycin and are grown inadherent culture at 37° C. in a standard CO2 cell culture incubator.
# INS-TMEM27 cells are seeded in 96-well plates. After 2 days in culture, BACE2 inhibitor is added in a range of concentrations as required by the assay and after a further two hours, doxycycline is added to a final concentration of 500 ng/ml. The cells are incubated for a further 46 hours and the supernatant harvested for detection of shed TMEM27.
# An ELISA assay (using a pair of mouse anti-human-TMEM27 antibodies, raised against the extracellular domain of TMEM27) is used for detection of TMEM27 in the culture medium. An EC50 for BACE2 inhibition is calculated using the ELISA readout for each inhibitor concentration with standard curve-fitting software such as XLFit for the Excel spreadsheet program.
# Sequence of endogenous cellular BACE2 in the Ins1e rat cell line (Q6IE75 63-514): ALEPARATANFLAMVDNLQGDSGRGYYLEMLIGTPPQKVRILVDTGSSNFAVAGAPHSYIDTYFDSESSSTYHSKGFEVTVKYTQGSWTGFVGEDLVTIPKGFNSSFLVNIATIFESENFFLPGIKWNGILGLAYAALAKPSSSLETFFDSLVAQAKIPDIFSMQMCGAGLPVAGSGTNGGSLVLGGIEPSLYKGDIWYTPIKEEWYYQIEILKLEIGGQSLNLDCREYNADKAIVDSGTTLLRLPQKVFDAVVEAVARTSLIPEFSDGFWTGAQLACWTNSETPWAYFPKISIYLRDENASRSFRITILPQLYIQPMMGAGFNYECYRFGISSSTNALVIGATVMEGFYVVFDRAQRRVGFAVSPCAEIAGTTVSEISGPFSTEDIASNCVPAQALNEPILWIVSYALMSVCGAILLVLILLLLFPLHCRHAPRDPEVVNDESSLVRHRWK
row,Compound,IC50 [nM]
1,"COc1ccc(Nc2ccc(F)c([C@@]3(C)N=C(N)N(C)C(=O)C3(C)C)c2)cc1 [Example 72, (S)-2-Amino-6-(2-fluoro-5-(4-methoxyphenylamino)phenyl)-3,5,5,6-tetramethyl-5,6-dihydropyrimidin-4(3H)-one]",201
2,"CN1C(=O)C(C)(C)[C@@](C)(c2cc(Nc3ccccc3OC(F)F)ccc2F)N=C1N [Example 73, (S)-2-Amino-6-(5-(2-(difluoromethoxy)phenylamino)-2-fluorophenyl)-3,5,5,6-tetramethyl-5,6-dihydropyrimidin-4(3H)-one]",135
3,"CN1C(=O)C(C)(C)[C@@](C)(c2cc(Nc3ccccc3OC(F)(F)F)ccc2F)N=C1N [Example 74, (S)-2-Amino-6-(2-fluoro-5-(2-(trifluoromethoxy)phenylamino)phenyl)-3,5,5,6-tetramethyl-5,6-dihydropyrimidin-4(3H)-one]",76
4,"Cc1ncsc1CNc1ccc(F)c([C@@]2(C)N=C(N)N(C)C(=O)C2(C)C)c1 [Example 78, (S)-2-Amino-6-{2-fluoro-5-[(4-methyl-thiazol-5-ylmethyl)-amino]-phenyl}-3,5,5,6-tetramethyl-5,6-dihydro-3H-pyrimidin-4-one]",156
5,"CC(Nc1ccc(F)c([C@@]2(C)N=C(N)N(C)C(=O)C2(C)C)c1)c1ncccn1 (stereo partly drawn) [Example 80, (S)-2-Amino-6-[2-fluoro-5-(1-pyrimidin-2-yl-ethylamino)-phenyl]-3,5,5,6-tetramethyl-5,6-dihydro-3H-pyrimidin-4-one]",44
6,"CN1C(=O)C(C)(C)[C@@](C)(c2cc(Nc3ccc(F)cc3F)ccc2F)N=C1N [Example 81, (S)-2-Amino-6-(5-(2,4-difluorophenylamino)-2-fluorophenyl)-3,5,5,6-tetramethyl-5,6-dihydropyrimidin-4(3H)-one]",223
7,"COc1cc(F)ccc1Nc1ccc(F)c([C@@]2(C)N=C(N)N(C)C(=O)C2(C)C)c1 [Example 82, (S)-2-Amino-6-(2-fluoro-5-(4-fluoro-2-methoxyphenylamino)phenyl)-3,5,5,6-tetramethyl-5,6-dihydropyrimidin-4(3H)-one]",135
8,"COc1ccc(F)cc1Nc1ccc(F)c([C@@]2(C)N=C(N)N(C)C(=O)C2(C)C)c1 [Example 84, (S)-2-Amino-6-(2-fluoro-5-(5-fluoro-2-methoxyphenylamino)phenyl)-3,5,5,6-tetramethyl-5,6-dihydropyrimidin-4(3H)-one]",69
9,"CN1C(=O)C(C)(C)[C@@](C)(c2cc(NCc3ncccn3)ccc2F)N=C1N [Example 85, (S)-2-Amino-6-{2-fluoro-5-[(pyrimidin-2-ylmethyl)-amino]-phenyl}-3,5,5,6-tetramethyl-5,6-dihydro-3H-pyrimidin-4-one]",101
10,"CN1C(=O)C(C)(C)[C@@](C)(c2cc(NCc3ccon3)ccc2F)N=C1N [Example 86, (S)-2-Amino-6-{2-fluoro-5-[(isoxazol-3-ylmethyl)-amino]phenyl}-3,5,5,6-tetramethyl-5,6-dihydro-3H-pyrimidin-4-one]",236
11,"CN1C(=O)C(C)(C)[C@@](C)(c2cc(NCC3(C(F)(F)F)CC3)ccc2F)N=C1N [Example 87, (S)-2-Amino-6-{2-fluoro-5-[(1-trifluoromethyl-cyclopropylmethyl)-amino]-phenyl}-3,5,5,6-tetramethyl-5,6-dihydro-3H-pyrimidin-4-one]",119
12,"CN1C(=O)C(C)(C)[C@@](C)(c2cc(Nc3cccc(F)c3)ccc2F)N=C1N [Example 88, (S)-2-Amino-6-[2-fluoro-5-(3-fluoro-phenylamino)-phenyl]-3,5,5,6-tetramethyl-5,6-dihydro-3H-pyrimidin-4-one]",795
13,"CN1C(=O)C(C)(C)[C@@](C)(c2cc(Nc3ccc(F)cc3)ccc2F)N=C1N [Example 89, (S)-2-Amino-6-[2-fluoro-5-(4-fluoro-phenylamino)-phenyl]-3,5,5,6-tetramethyl-5,6-dihydro-3H-pyrimidin-4-one]",1140
14,"CN1C(=O)C(C)(C)[C@@](C)(c2cc(NCC3CCCOC3)ccc2F)N=C1N (stereo partly drawn) [Example 90, (S)-2-Amino-6-{2-fluoro-5-[(tetrahydro-pyran-3-ylmethyl)-amino]-phenyl}-3,5,5,6-tetramethyl-5,6-dihydro-3H-pyrimidin-4-one]",467
15,"CCNc1ccc(F)c([C@@]2(C)N=C(N)N(C)C(=O)C2(C)C)c1 [Example 91, (S)-2-Amino-6-(5-ethylamino-2-fluoro-phenyl)-3,5,5,6-tetramethyl-5,6-dihydro-3H-pyrimidin-4-one]",322
16,"CN1C(=O)C(C)(C)[C@@](C)(c2cc(N[C@H]3CCC[C@@H]3O)ccc2F)N=C1N [Example 92, (S)-2-Amino-6-(2-fluoro-5-((1S,2S)-2-hydroxycyclopentylamino)phenyl)-3,5,5,6-tetramethyl-5,6-dihydropyrimidin-4(3H)-one]",279
17,"COc1cc(C(F)(F)F)ccc1Nc1ccc(F)c([C@@]2(C)N=C(N)N(C)C(=O)C2(C)C)c1 [Example 94, (S)-2-Amino-6-[2-fluoro-5-(2-methoxy-(4-trifluoromethyl)-phenylamino)-phenyl]-3,5,5,6-tetramethyl-5,6-dihydro-3H-pyrimidin-4-one]",704
18,"COC(=O)CC1CCC(Nc2ccc(F)c([C@@]3(C)N=C(N)N(C)C(=O)C3(C)C)c2)C1 (stereo partly drawn) [Example 95, {3-[3-((S)-2-Amino-1,4,5,5-tetramethyl-6-oxo-1,4,5,6-tetrahydro-pyrimidin-4-yl)-4-fluoro-phenylamino]-cyclopentyl}-acetic acid methyl ester]",406

# Further compounds by falling IC50, results first:
row,IC50 [nM],Compound
1,44,"COc1cccc(Nc2ccc(F)c([C@@]3(C)N=C(N)N(C)C(=O)C3(C)C)c2)c1 [Example 79, (S)-2-Amino-6-(2-fluoro-5-(3-methoxyphenylamino)phenyl)-3,5,5,6-tetramethyl-5,6-dihydropyrimidin-4(3H)-one]"
2,25,"CC(=O)OC1CC2CC1CC2Nc1ccc(F)c([C@@]2(C)N=C(N)N(C)C(=O)C2(C)C)c1 (stereo partly drawn) [Example 93, Acetic acid 5-[3-((S)-2-amino-1,4,5,5-tetramethyl-6-oxo-1,4,5,6-tetrahydro-pyrimidin-4-yl)-4-fluoro-phenylamino]-bicyclo[2.2.1]hept-2-yl ester]"
3,21,"CN1C(=O)C(C)(C)[C@@](C)(c2cc(NC3CCc4cccc(F)c43)ccc2F)N=C1N (stereo partly drawn) [Example 63, (6S)-2-Amino-6-(2-fluoro-5-(7-fluoro-2,3-dihydro-1H-inden-1-ylamino)phenyl)-3,5,5,6-tetramethyl-5,6-dihydropyrimidin-4(3H)-one]"
4,16,"CN1C(=O)C(C)(C)[C@@](C)(c2cc(NCC3CCC3)ccc2F)N=C1N [Example 70, (S)-2-Amino-6-[5-(C-cyclobutylmethyl-amino)-2-fluoro-phenyl]-3,5,5,6-tetramethyl-5,6-dihydro-3H-pyrimidin-4-one]"
5,15,"CN1C(=O)C(C)(C)[C@@](C)(c2cc(NCC3CCOC3)ccc2F)N=C1N (stereo partly drawn) [Example 76, (S)-2-Amino-6-{2-fluoro-5-[(tetrahydro-furan-3-ylmethyl)-amino]phenyl}-3,5,5,6-tetramethyl-5,6-dihydro-3H-pyrimidin-4-one]"
6,14,"CN1C(=O)C(C)(C)[C@@](C)(c2cc(NCC3(C)COC3)ccc2F)N=C1N [Example 71, (S)-2-Amino-6-{2-fluoro-5-[(3-methyl-oxetan-3-ylmethyl)-amino]-phenyl}-3,5,5,6-tetramethyl-5,6-dihydro-3H-pyrimidin-4-one]"
7,12,"CN1C(=O)C(C)(C)[C@@](C)(c2cc(NCC(F)(F)F)ccc2F)N=C1N [Example 75, (S)-2-Amino-6-(2-fluoro-5-(2,2,2-trifluoroethylamino)phenyl)-3,5,5,6-tetramethyl-5,6-dihydropyrimidin-4(3H)-one]"
8,12,"CC(CNc1ccc(F)c([C@@]2(C)N=C(N)N(C)C(=O)C2(C)C)c1)C(F)(F)F (stereo partly drawn) [Example 83, (S)-2-Amino-6-[2-fluoro-5-(3,3,3-trifluoro-2-methyl-propylamino)-phenyl]-3,5,5,6-tetramethyl-5,6-dihydro-3H-pyrimidin-4-one]"
9,3,"CN1C(=O)C(C)(C)[C@@](C)(c2cc(NCC3(C)CC3(F)F)ccc2F)N=C1N (stereo partly drawn) [Example 68, (S)-2-Amino-6-{5-[(2,2-difluoro-1-methyl-cyclopropylmethyl)-amino]-2-fluoro-phenyl}-3,5,5,6-tetramethyl-5,6-dihydro-3H-pyrimidin-4-one]"
10,1,"CN1C(=O)C(C)(C)[C@@](C)(c2cc(NC3CCc4cc(Cl)cnc43)ccc2F)N=C1N (stereo partly drawn) [Example 62, (6S)-2-Amino-6-(5-(3-chloro-6,7-dihydro-5H-cyclopenta[b]pyridin-7-ylamino)-2-fluorophenyl)-3,5,5,6-tetramethyl-5,6-dihydropyrimidin-4(3H)-one]"
11,1,"CN1C(=O)C(C)(C)[C@@](C)(c2cc(NCc3nn(C)cc3Cl)ccc2F)N=C1N [Example 96, (S)-2-Amino-6-{5-[(4-chloro-1-methyl-1H-pyrazol-3-ylmethyl)-amino]-2-fluoro-phenyl}-3,5,5,6-tetramethyl-5,6-dihydro-3H-pyrimidin-4-one]"
